Each compound was assayed against T1, wild-type HIV-1 protease (Human immunodeficiency virus type 1 group M subtype B, UniProt P04585) (assay: Assay for Inhibition of Microbial Expressed HIV Protease). Details: Escherichia coli expressed wild-type HIV-1 protease, peptide substrate cleavage; mean of at least two independent experiments.
T1 construct: Escherichia coli expressed wild-type HIV-1 protease protein; made in house; host or cells: Escherichia coli
Type: biochemical
Method: Inhibition of Escherichia coli expressed wild-type HIV-1 protease protein was carried out with a peptide substrate [Val-Ser-Gln-Asn-Wnaphtyl)Ala-Pro-Ile-Val]. The inhibitor compound was preincubated with HIV-1 protease enzyme in assay buffer (50 mM sodium acetate, pH 5.5, 100 mM NaCl, and 0.1% BSA) for 30 minutes at room temperature. Peptide substrate was added to 400 μM in a total volume of 20 μL containing 20 pM HIV-1 protease (final) after which the reaction was incubated for 1 hour at 30° C. The reaction was quenched by the addition of formic acid and HIV protease inhibitor indinavir to 0.012% and 150 nM final concentrations, respectively. Product formation was determined after separation of product and substrate on a ZORBAX Eclipse XDB-C18 column (Aligent Technologies, Santa Clara, Calif., USA) connected to an API 4000™ mass spectrometer (AB Sciex, Pte. Ltd., Concord Ontario, Canada) with multiple reaction monitoring (transitions were 644.5/428.9 and 615.4/422.2 (M1/M3) for product and indinavir respectively). The extent of inhibition of the reaction was determined from the peak area of the products. Analysis of the products, independently synthesized, provided quantitation standards and confirmation of the product composition. […] Ic50's refer to the 50% inhibition of the cleavage of a peptide substrate by hiv protease.
Data shown in the table reflects the mean of at least two independent experiments.
`CN(Cc1ccc(Cl)cc1)C(=O)c1cccc(CN2C(=N)NC(c3ccc(F)cc3)(c3ccc(F)cc3)C2=O)c1` [Example 30, 3-{[4,4-bis(4-fluorophenyl)-2-imino-5-oxoimidazolidin-1-yl]methyl}-N-(4-chlorobenzyl)-N-methylbenzamide] gave an IC50 of 17.9 nM.
`N=C1NC(c2ccccc2)(c2ccccc2)C(=O)N1Cc1ccc(C(F)(F)F)c(C(=O)NCc2ccc(OC(F)F)cc2)c1` [Example 12, N-[4-(difluoromethoxy)benzyl]-5-[(2-imino-5-oxo-4,4-diphenylimidazolidin-1-yl)methyl]-2-(trifluoromethyl)benzamide] showed an IC50 of 94.1 nM.
With `CC(C)CC1(c2ccc(F)cc2)NC(=N)N(Cc2cccc(C(=O)N(C)Cc3ccc(Cl)cc3)c2)C1=O` (centres unmarked) [Example 16, N-(4-chlorobenzyl)-3-{[4-(4-fluorophenyl)-2-imino-4-(2-methylpropyl)-5-oxoimidazolidin-1-yl]methyl}-N-methylbenzamide] the IC50 was 9.12 nM.
For `CCCC1(c2ccccc2)NC(=N)N(Cc2cccc(C(=O)N(C)Cc3ccc(Cl)cc3)c2)C1=O` (centres unmarked) [Example 27, N-(4-chlorobenzyl)-3-[(2-imino-5-oxo-4-phenyl-4-propylimidazolidin-1-yl)methyl]-N-methylbenzamide], the IC50 was 16.9 nM.
In the case of `CN(C)C(=O)c1cccc(CN2C(=N)NC(c3ccccc3)(c3ccc(-c4ccccc4)cc3)C2=O)c1` (centres unmarked) [Example 45, 3-[(4-biphenyl-4-yl-2-imino-5-oxo-4-phenylimidazolidin-1-yl)methyl]-N,N-dimethylbenzamide], the IC50 is reported as 30.3 nM.
`CC(C)CCC1(c2ccccc2)NC(=N)N(Cc2cncc(C(=O)N(C)Cc3ccc(C#N)cc3)c2)C1=O` (centres unmarked) [Example 83, N-(4-cyanobenzyl)-5-{[2-imino-4-(3-methylbutyl)-5-oxo-4-phenylimidazolidin-1-yl]methyl}-N-methylpyridine-3-carboxamide] was tested, and the IC50 was 50.4 nM.
Work on `CN(Cc1ccccc1S(C)(=O)=O)C(=O)c1cccc(CN2C(=N)NC(c3ccccc3)(c3ccccc3)C2=O)c1` [Example 23, 3-[(2-imino-5-oxo-4,4-diphenylimidazolidin-1-yl)methyl]-N-methyl-N-[2-(methylsulfonyl)-benzyl]benzamide] yielded an IC50 of 12.9 nM.
`CN(Cc1cccc(F)c1)C(=O)c1cccc(CN2C(=N)NC(c3ccc(F)cc3)(c3ccc(F)cc3)C2=O)c1` [Example 68, 3-{[4,4-bis(4-fluorophenyl)-2-imino-5-oxoimidazolidin-1-yl]methyl}-N-(3-fluorobenzyl)-N-methylbenzamide] showed an IC50 of 96.6 nM.
`CN(C)C(=O)c1cccc(CN2C(=N)NC(c3ccccc3)(c3cccc(-c4ccccc4)c3)C2=O)c1` (centres unmarked) [Example 63, 3-[(4-biphenyl-3-yl-2-imino-5-oxo-4-phenylimidazolidin-1-yl)methyl]-N,N-dimethylbenzamide] gave an IC50 of 83.4 nM.
`CN(Cc1ccc(C#N)cc1)C(=O)c1cccc(CN2C(=N)NC(c3ccc(F)cc3)(c3ccc(F)cc3)C2=O)c1` [Example 13, 3-{[4,4-bis(4-fluorophenyl)-2-imino-5-oxoimidazolidin-1-yl]methyl}-N-(4-cyanobenzyl)-N-methylbenzamide] showed an IC50 of 6.69 nM.
Compound `CN(Cc1ccc(Cl)cc1)C(=O)c1ccnc(CN2C(=N)NC(c3ccc(F)cc3)(c3ccc(F)cc3)C2=O)c1` [Example 89, 2-{[4,4-bis(4-fluorophenyl)-2-imino-5-oxoimidazolidin-1-yl]methyl}-N-(4-chlorobenzyl)-N-methylpyridine-4-carboxamide] has an IC50 of 18.9 nM.
Work on `CC(C)CC1(c2ccccc2)NC(=N)N(Cc2ccc(Cl)c(C(=O)N[C@H](C)c3ccc(F)cc3)c2)C1=O` (stereo partly drawn) [Example 76, 2-chloro-N-[(1R)-1-(4-fluorophenyl)ethyl]-5-{[2-imino-4-(2-methylpropyl)-5-oxo-4-phenylimidazolidin-1-yl]methyl}benzamide] yielded an IC50 of 40.1 nM.
Work on `CN(Cc1cccnc1)C(=O)c1cccc(CN2C(=N)NC(c3ccc(F)cc3)(c3ccc(F)cc3)C2=O)c1` [Example 57, 3-{[4,4-bis(4-fluorophenyl)-2-imino-5-oxoimidazolidin-1-yl]methyl}-N-methyl-N-(pyridin-3-ylmethyl)benzamide] yielded an IC50 of 58.9 nM.
Work on `CN(Cc1ccccc1S(C)(=O)=O)C(=O)c1cccc(CN2C(=N)NC(c3ccc(F)cc3)(c3ccc(F)cc3)C2=O)c1` [Example 52, 3-{[4,4-bis(4-fluorophenyl)-2-imino-5-oxoimidazolidin-1-yl]methyl}-N-methyl-N-[2-(methylsulfonyl)-benzyl]benzamide] yielded an IC50 of 48.3 nM.
In the case of `N#Cc1ccc(CNC(=O)c2cccc(CN3C(=N)NC(c4ccc(F)cc4)(c4ccc(F)cc4)C3=O)c2)cc1` [Example 67, 3-{[4,4-bis(4-fluorophenyl)-2-imino-5-oxoimidazolidin-1-yl]methyl}-N-(4-cyanobenzyl)benzamide], the IC50 is reported as 95.2 nM.
With `CC(C)CC1(c2ccccc2)NC(=N)N(Cc2ccc(Cl)c(C(=O)NCc3ccc(F)cc3)c2)C1=O` (centres unmarked) [Example 72, 2-chloro-N-(4-fluorobenzyl)-5-{[2-imino-4-(2-methylpropyl)-5-oxo-4-phenylimidazolidin-1-yl]methyl}benzamide] the IC50 was 9.5 nM.
With `CC(C)CCC1(c2ccccc2)NC(=N)N(Cc2cccc(C(=O)N(C)Cc3ccc(F)cc3)c2)C1=O` (centres unmarked) [Example 17, N-(4-fluorobenzyl)-3-{[2-imino-4-(3-methylbutyl)-5-oxo-4-phenylimidazolidin-1-yl]methyl}-N-methylbenzamide] the IC50 was 10.3 nM.
`CC(C)CC1(c2ccccc2)NC(=N)N(Cc2ccc(Cl)c(C(=O)NCc3cnccn3)c2)C1=O` (centres unmarked) [Example 75, 2-chloro-5-{[2-imino-4-(2-methylpropyl)-5-oxo-4-phenylimidazolidin-1-yl]methyl}-N-(pyrazin-2-ylmethyl)benzamide] showed an IC50 of 31.3 nM.
`CN(Cc1ccc(Cl)cc1)C(=O)c1cccc(CN2C(=N)NC(c3ccc(F)cc3)(c3ccccn3)C2=O)c1` (centres unmarked) [Example 39, N-(4-chlorobenzyl)-3-{[4-(4-fluorophenyl)-2-imino-5-oxo-4-pyridin-2-ylimidazolidin-1-yl]methyl}-N-methylbenzamide] gave an IC50 of 24.8 nM.
For `CN(C)C(=O)c1cccc(CN2C(=N)NC(c3ccc(F)cc3)(c3cccc(-c4cccc(C#N)c4)c3)C2=O)c1` (centres unmarked) [Example 58, 3-{[4-(3'-cyanobiphenyl-3-yl)-4-(4-fluorophenyl)-2-imino-5-oxoimidazolidin-1-yl]methyl}-N,N-dimethylbenzamide], the IC50 was 63.4 nM.
`CN(Cc1ccccc1F)C(=O)c1cccc(CN2C(=N)NC(c3ccc(F)cc3)(c3ccc(F)cc3)C2=O)c1` [Example 65, 3-{[4,4-bis(4-fluorophenyl)-2-imino-5-oxoimidazolidin-1-yl]methyl}-N-(2-fluorobenzyl)-N-methylbenzamide] showed an IC50 of 89.9 nM.
With `CN(Cc1ccc(Cl)cc1)C(=O)c1ccnc(CN2C(=N)NC(c3ccccc3)(c3ccccc3)C2=O)c1` [Example 86, N-(4-chlorobenzyl)-2-[(2-imino-5-oxo-4,4-diphenylimidazolidin-1-yl)methyl]-N-methylpyridine-4-carboxamide] the IC50 was 7.72 nM.
`CN(Cc1ccc(Cl)cc1)C(=O)c1cccc(CN2C(=N)NC(c3ccccc3)(c3ccccc3)C2=O)c1` [Example 36, N-(4-chlorobenzyl)-3-[(2-imino-5-oxo-4,4-diphenylimidazolidin-1-yl)methyl]-N-methylbenzamide] was tested, and the IC50 was 21.7 nM.
